From patent US9151757B2, “Detecting antigen responsive cells in a sample” (Stichting Sanquin Bloedvoorziening, priority 2008, dated 2015)

Each sequence was assayed on CD8+ T cells in PBMCs (assay: Combinatorial coding MHC multimer flow cytometry of enriched, in vitro expanded PBMCs). Conditions: enriched PBMCs from 27 HLA-A3 positive melanoma patients, after MACS enrichment and short term in vitro expansion.
Format: cell-based, human
With QLRALDGGNK (listed as Homo sapiens) the “CD8+ T cell responses against peptide detected by dual color-encoded pMHC multimer staining” value (“CD8+ T cell responses” for short) was “CD8^+ T cell responses were observed”. With “GTYEGLLRR (listed as Homo sapiens) [Tyrp2 301-309, unknown HLA-A3 associated T cell antigen]” the “CD8+ T cell responses” value was “identification of the unknown HLA-A3 associated T cells antigens”. RMYNMVPFF (listed as Homo sapiens) was tested, and the “CD8+ T cell responses” value was “CD8^+ T cell responses were observed”. SLYRDPLPR (listed as Homo sapiens) was tested, and the “CD8+ T cell responses” value was “CD8^+ T cell responses were observed”. With HAYIQSLLK (listed as Homo sapiens) the “CD8+ T cell responses” value was “CD8^+ T cell responses were observed”.
